Results as given in ChEMBL document CHEMBL4513161, “CO-ADD screening of MMV (CH) - Pandemic Response Box” (2021).
Converted amounts (≈) assume the structure as drawn. Structures can show the parent of a compound that is named as a salt.

Key:
[1] = tested on: HEK293; assay: cells; type: functional, Homo sapiens, ATCC CRL1573; conditions: Homo sapiens, ATCC CRL1573, HEK293; ASSAY_TEST Inhibition of Cell Viability; detection method Resazurin; Fluorescence (ex560/em590); MEDIA DMEM with 10% FBS; plate type 384well; TC; CORNING #3712; time 18 hr; read-out: CC50
[2] = tested on: Escherichia coli; assay: microbe, parasite or virus in culture; conditions: ATCC 25922, 18 h, ASSAY_TEST Inhibition of Bacterial Growth, detection method Absorption (OD600), MEDIA CAMHB, plate type 384well, NBS, CORNING #3640
Description: Antibacterial activity against Escherichia coli ATCC 25922 (CO-ADD:GN_001); MIC in CAMBH media using NBS plates, by OD(600)

[3] = tested on: Acinetobacter baumannii; assay: microbe, parasite or virus in culture; conditions: ATCC 19606, 18 h, ASSAY_TEST Inhibition of Bacterial Growth, detection method Absorption (OD600), MEDIA CAMHB, plate type 384well, NBS, CORNING #3640
Description: Antibacterial activity against Acinetobacter baumannii ATCC 19606 (CO-ADD:GN_034); MIC in CAMBH media using NBS plates, by OD600

[4] = tested on: Cryptococcus neoformans
Description: Antifungal activity against Cryptococcus neoformans H99 ATCC 208821 (CO-ADD:FG_002); MIC in YNB media using NBS plates, by Resazurin OD(600-570)

[5] = tested on: Klebsiella pneumoniae; assay: microbe, parasite or virus in culture; conditions: ATCC 700603, 18 h, ASSAY_TEST Inhibition of Bacterial Growth, detection method Absorption (OD600), MEDIA CAMHB, plate type 384well, NBS, CORNING #3640
Description: Antibacterial activity against Klebsiella pneumoniae MDR ATCC 70063 (CO-ADD:GN_003); MIC in CAMBH media using NBS plates, by OD(600)

[6] = tested on: Staphylococcus aureus; assay: microbe, parasite or virus in culture; conditions: ATCC 43300, 18 h, ASSAY_TEST Inhibition of Bacterial Growth, detection method Absorption (OD600), MEDIA CAMHB, plate type 384well, NBS, CORNING #3640
Description: Antibacterial activity against Staphylococcus aureus MRSA ATCC 43300 (CO-ADD:GP_020); MIC in CAMBH media, using NBS plates, by OD(600)

[7] = tested on: Pseudomonas aeruginosa; assay: microbe, parasite or virus in culture; conditions: ATCC 27853, 18 h, ASSAY_TEST Inhibition of Bacterial Growth, detection method Absorption (OD600), MEDIA CAMHB, plate type 384well, NBS, CORNING #3640
Description: Antibacterial activity against Pseudomonas aeruginosa ATCC 27853 (CO-ADD:GN_042); MIC in CAMBH media using NBS plates, by OD(600)

[8] = tested on: Pseudomonas aeruginosa; assay: Antibacterial activity against Pseudomonas aeruginosa PAO397 [PAO1 d(mexAB-oprM) d(mexCD-oprJ) d(mexEF-oprN) d(mexJKL) d(mexXY) d(opmH)] (CO-ADD:GN_211); MIC in CAMBH media using NBS plates, by OD(600); type: functional; conditions: ASSAY_TEST Inhibition of Bacterial Growth, detection method Absorption (OD600), MEDIA CAMHB, plate type 384well, CORNING #3640, time 18 hr
[9] = tested on: Candida albicans; assay: microbe, parasite or virus in culture; conditions: ATCC 90028, ASSAY_TEST Inhibition of Fungal Growth, detection method Absorption (OD530), plate type 384well, NBS, CORNING #3640
Description: Antifungal activity against Candida albicans ATCC 90028 (CO-ADD:FG_001); MIC in YNB media using NBS plates, by OD630

Compound | MIC [2] [µM] | MIC [3] [µM] | MIC [4] [µM] | MIC [5] [µM] | MIC [6] [µM] | MIC [7] [µM] | MIC [8] [µM] | MIC [9] [µM] | CC50 [1] [µM]
O=C(c1nc2c(C(F)(F)F)cc(C3CC3)cn2c1Cl)N1CCN([C@H]2CC[C@H](O)CC2)C(=O)C1 | > 20 | > 20 | > 20 | > 20 | > 20 | > 20 | > 20 | > 20 | > 20
CN1CCN(Cc2ccc(-c3cnc4[nH]cc(-c5ccc6[nH]ccc6c5)c4c3)cc2)CC1 | > 20 | > 20 | > 20 | > 20 | > 20 | > 20 | > 20 | > 20 | 5.33
CC1(C)CC(NC(=O)C(=O)Nc2ccc(Cl)cc2)CC(C)(C)N1 | > 20 | > 20 | > 20 | > 20 | > 20 | > 20 | > 20 | > 20 | > 20
CCOc1ccc(/C=N/NC(=O)C2CC2c2ccc(C(C)(C)C)cc2)cc1OCC (configuration not stated) | > 20 | > 20 | > 20 | > 20 | > 20 | > 20 | > 20 | > 20 | > 20
O=C(O)CSc1cc(NS(=O)(=O)c2cccc3cccnc23)c2ccccc2c1O | > 20 | > 20 | > 20 | > 20 | > 20 | > 20 | > 20 | > 20 | > 20
COc1cc(C(C(=O)NC2CCCCC2)N(C(=O)Cc2c[nH]c3ccccc23)c2ccc(C(C)C)cc2)cc(OC)c1OC (configuration not stated) | > 20 | > 20 | > 20 | > 20 | > 20 | > 20 | > 20 | > 20 | > 20
Nc1nc(-c2ccccc2)nc2[nH]nc(Nc3ccc(C(F)(F)F)cc3)c12 | > 20 | > 20 | > 20 | > 20 | > 20 | > 20 | > 20 | > 20 | > 20
CNC(=O)C1O[C@@H](n2cnc3c(NCc4cccc(I)c4)nc(Cl)nc32)[C@H](O)[C@@H]1O (some centres not stated) | > 20 | > 20 | > 20 | > 20 | > 20 | > 20 | > 20 | > 20 | 18.3
CCCC1(C2CC2)c2cc(Cl)ccc2NC(=O)N1C (configuration not stated) | > 20 | > 20 | > 20 | > 20 | > 20 | > 20 | > 20 | > 20 | > 20
CC(C)C(=O)N[C@H]1[C@H]([C@H](O)[C@H](O)CO)OC(C(=O)O)=C[C@@H]1N=[N+]=[N-] | > 20 | > 20 | > 20 | > 20 | > 20 | > 20 | > 20 | > 20 | > 20
Oc1c(C(Nc2nc3ccccc3s2)c2ccc(OC(F)F)cc2)ccc2cccnc12 (configuration not stated) | > 20 | > 20 | > 20 | > 20 | > 20 | > 20 | > 20 | > 20 | 9.22
Cc1ccc(Oc2ccccc2-c2csc(N=C3NCCCN3)n2)c(C)c1 [ABAFUNGIN] | > 20 | > 20 | > 20 | > 20 | > 20 | > 20 | > 20 | 0.312 (≈ 0.118 µg/mL) | > 20
Nc1nc2c(ncn2COCCO)c(=O)[nH]1 [ACYCLOVIR] | > 20 | > 20 | > 20 | > 20 | > 20 | > 20 | > 20 | > 20 | > 20
OB1OCc2cc(Cl)ccc21 [AN-2718] | > 20 | > 20 | > 20 | > 20 | > 20 | > 20 | > 20 | 5 (≈ 0.842 µg/mL) | > 20
NCC(=O)Nc1ccc(-n2nc(C(F)(F)F)cc2-c2ccc3c(ccc4ccccc43)c2)cc1 [AR-12] | > 20 | > 20 | > 20 | > 20 | > 20 | > 20 | > 20 | > 20 | 6.68
COc1nc2ccc(Br)cc2cc1[C@@H](c1ccccc1)[C@@](O)(CCN(C)C)c1cccc2ccccc12 [BEDAQUILINE] | > 20 | > 20 | > 20 | > 20 | > 20 | > 20 | > 20 | > 20 | > 20
CCc1oc2ccccc2c1C(=O)c1ccc(O)cc1 [BENZARONE] | > 20 | > 20 | > 20 | > 20 | > 20 | > 20 | > 20 | > 20 | > 20
C[C@@]1(O)[C@H](O)[C@@H](CO)O[C@H]1n1ccc2c(N)ncnc21 [BETA-2'-C-METHYL-7-DEAZA-ADENOSINE] | > 20 | > 20 | > 20 | > 20 | > 20 | > 20 | > 20 | > 20 | > 20

Now from value to compound, other results behind:

MIC [2] [µM] | MIC [3] [µM] | MIC [4] [µM] | MIC [5] [µM] | MIC [6] [µM] | MIC [7] [µM] | MIC [8] [µM] | MIC [9] [µM] | Compound | CC50 [1] [µM]
> 20 | > 20 | > 20 | > 20 | > 20 | > 20 | > 20 | > 20 | CN(C(=O)C1(c2ccc(Cl)cc2)CCC1)c1ccccc1 | > 20
> 20 | > 20 | > 20 | > 20 | > 20 | > 20 | > 20 | > 20 | Nc1ccc(-c2nc3cc(C(F)(F)F)ccc3n2C23CC4CC(CC(C4)C2)C3)cc1 | > 20
> 20 | > 20 | > 20 | > 20 | > 20 | > 20 | > 20 | > 20 | COc1ccc(OCc2ccc(COc3c(Cl)cccc3Cl)cc2)c(Cl)c1 | > 20
> 20 | > 20 | > 20 | > 20 | > 20 | > 20 | > 20 | > 20 | COc1cc(NS(=O)(=O)c2ccc(C)cc2)c2ncccc2c1 | 5.41
> 20 | > 20 | > 20 | > 20 | > 20 | > 20 | > 20 | > 20 | O=C(O)c1cc(-c2ccc(Br)cc2)nc2ccc(Cl)cc12 | > 20
> 20 | > 20 | > 20 | > 20 | > 20 | > 20 | > 20 | > 20 | CC(C)(C)c1ccc(C(Cn2cccc(C(F)(F)F)c2=O)NC2Cc3ccccc3C2)cc1 (configuration not stated) | > 20
> 20 | > 20 | > 20 | > 20 | > 20 | > 20 | > 20 | > 20 | Nc1nc(C(F)(F)F)cc2c1[nH]c(=O)n2Cc1ccccc1 | > 20
> 20 | > 20 | > 20 | > 20 | > 20 | > 20 | > 20 | > 20 | CCCCc1ccc(-c2nc(C)c(C(=O)OC)s2)cc1 | > 20
> 20 | > 20 | > 20 | > 20 | > 20 | > 20 | > 20 | > 20 | O=C(NCc1ccc(F)cc1)c1c(O)c2ncccc2[nH]c1=O | > 20
1.25 | 10 | ≤ 0.156 | 5 | ≤ 0.156 | 5 | 5 | 0.625 | CCCCC(CC)CNC(=N)NC(=N)NCCCCCCNC(=N)NC(=N)NCC(CC)CCCC (configuration not stated) [ALEXIDINE DIHYDROCHLORIDE] | 2.61
